Test results taken from patent US9993553B2, “Methods and compositions for targeted release of molecules from nanoscale carriers” (The Regents of the University of California, priority 2013, dated 2018).
{6-FAM} = 6-carboxyfluorescein dye; {BHQ-1} = Black Hole Quencher-1

What was measured:
[1] = X-ray radiation cleavage of 6-FAM labelled DNA, fluorescence spectroscopy, with DMSO as hydroxyl radical scavenger; type: physicochemical; conditions: 100 Gy
Method: X-ray radiation studies were performed, using DMSO as a hydroxyl radical scavenger at concentrations from 0-100 mM. In a 24-well plate, 400 μL of purified 6-FAM-DNA-AuNPs were mixed with 400 μL of 2×DMSO solution, or PBS and the samples were irradiated with X-rays. After radiation, the AuNPs were removed from solution by centrifugation (13,000 rpm, 15 min) and supernatant fluorescence was measured (Excitation at 490 nm and Emission at 514 nm). Non-radiated controls were identically prepared and measured.
6-FAM has a high fluorescence yield (>80%) and high quenching when attached to AuNPs. The cleavage via X-ray irradiation was studied with optical fluorescence spectroscopy.
Black Hole Quencher®-1 DNA, coupled to 6-FAM, was purchased from IDT (6-FAM-5′-[…]-3′-BHQ-1®). It was irradiated with DMSO at concentrations from 0-100 mM in 24 well plates, and the fluorescence from cleaved DNA was measured. […] X-ray radiated and cleaved 6-FAM molecules were incubated with MCF-7 cells for 4 hours.

MCF-7 cells = experiment: Clonogenic assay with X-ray irradiation; type: cell-based
Method: MCF-7 cells were plated at a rate of 50,000 cells/ml in a 24-well cell culture plate. They were then incubated with DOX, DOX-DNA, and DOX-DNA-AuNPs for 12 hours, and then irritated with 0, 2, 5, and 10 Gy X-rays. The cells were then counted, using a hemocytometer, and replated in a 6 well plate at 1000 cell per well for the 0 and 2 Gy dose; 3000 cells for the 5 Gy; and 9000 for the 10 Gy. The plates were incubated for 14 days, and then fixed with gluteraldhyde and stained with crystal violet. The colonies with 50 or more cells were then counted.

Molecule	Effect of DMSO (hydroxyl radical scavenger) on cleavage / fluorescence ([1]; DMSO up to 100 mM)	Cleavage after X-ray radiation ([1]; zero DMSO) [%]	Cleavage (fluorescence) after X-ray radiation in the presence of AuNPs ([1]; zero DMSO, mixture with AuNPs, no covalent conjugation) [%]	Measured cell survivability (MCF-7 cells; 0 Gy)	Measured cell survivability (MCF-7 cells; 2 Gy)	Measured cell survivability (MCF-7 cells; 5 Gy)	Measured cell survivability (MCF-7 cells; 10 Gy)	Survivability of MCF-7 cells (MCF-7 cells; DOX alone, no radiation) [%]	Toxicity to MCF-7 cells (MCF-7 cells; DOX alone, no radiation, 24 million free DOX in the cell)
6-FAM-5′-TTAGGGTTAGGG-3′-BHQ-1® (DNA, 5' {6-FAM}, 3' {BHQ-1}, backbone not given here) [Q-DNA-6-FAM, Black Hole Quencher-1 DNA coupled to 6-FAM, purchased from IDT]	significantly reduced the fluorescence	25	4	–	–	–	–	–	–
COc1cccc2c1C(=O)c1c(O)c3c(c(O)c1C2=O)C[C@@](O)(C(=O)CO)C[C@@H]3O[C@H]1C[C@H](N)[C@H](O)[C@H](C)O1 [DOX, doxorubicin]	–	–	–	0.81 ± .01	0.61 ± .05	0.28 ± .02	0.07 ± .002	80	about 20%
